Data published in publication PMC3725310 (Nature, 2013).

Molecular target: p7(5a) (Hepatitis C virus (isolate EUH1480), UniProt O39928, A759S/C749A/C774T/C791S/T748G)
Test: biochemical
Format: binding

CC(N)C12CC3CC(CC(C3)C1)C2 (stereo not shown) [rimantadine]
Kd: 50 to 100 µM
